In US9265773B2, “Tetracyclic heterocycle compounds and methods of use thereof for the treatment of viral diseases” (priority 2011, dated 2016):

Legend:
HCV replicon genotype 1a = experiment: microbe, parasite or virus in culture; format: cell-based; conditions: genotype 1a replicon cells, incubated 96 hours, NS3/4A ELISA readout
HCV replicon genotype 1b = experiment: microbe, parasite or virus in culture; format: cell-based; conditions: genotype 1b replicon cells, incubated 96 hours, NS3/4A ELISA readout

SMILES	IC50 (HCV replicon genotype 1a; Hepatitis C virus, 96 h) [nM]	IC50 (HCV replicon genotype 1b; Hepatitis C virus, 96 h) [nM]	IC50 (HCV replicon genotype 1a) [nM]	IC50 (HCV replicon genotype 1b) [nM]
CNC(=O)c1c(-c2ccc(F)cc2)oc2cc(N(C)S(C)(=O)=O)c(-c3ccc4c(n3)-c3cc5ccccc5n3CO4)cc12 [Compound 1, 2-(4-fluorophenyl)-N-methyl-6-(N-methylmethylsulfonamido)-5-(6H-pyrido[2′,3′:5,6][1,3]oxazino[3,4-a]indol-2-yl)benzofuran-3-carboxamide]	2.4	4.8	–	–
CNC(=O)c1c(-c2ccc(F)cc2)oc2cc(N(C)S(C)(=O)=O)c(-c3ccc4c(n3)-c3cc5c(F)cccc5n3CO4)cc12 [Compound 2, 5-(11-fluoro-6H-pyrido[2′,3′:5,6][1,3]oxazino[3,4-a]indol-2-yl)-2-(4-fluorophenyl)-N-methyl-6-(N-methylmethylsulfonamido)benzofuran-3-carboxamide]	1.6	2.7	–	–
CNC(=O)c1c(-c2ccc(F)cc2)oc2cc(N(C)S(C)(=O)=O)c(-c3ccc4c(n3)-c3cc5cc(F)ccc5n3CO4)cc12 [Compound 3]	2	3.7	–	–
CNC(=O)c1c(-c2ccc(F)cc2)oc2cc(N(C)S(C)(=O)=O)c(-c3ncc4c(n3)-c3cc5ccccc5n3CO4)cc12 [Compound 4]	0.7	1.3	–	–
CNC(=O)c1c(-c2ccc(F)cc2)oc2cc(N(C)S(C)(=O)=O)c(-c3ncc4c(n3)-c3cc5c(F)cccc5n3CO4)cc12 [Compound 5]	1	2	–	–
CNC(=O)c1c(-c2ccc(F)cc2)oc2cc(N(C)S(C)(=O)=O)c(-c3ncc4c(n3)-c3cc5cc(F)ccc5n3CO4)cc12 [Compound 6]	1.5	2.3	–	–
CNC(=O)c1c(-c2ccc(F)cc2)oc2cc(N(C)S(C)(=O)=O)c(-c3ncc4c(n3)-c3cc5ccccc5n3CCO4)cc12 [Compound 7]	2.4	1.6	–	–
CNC(=O)c1c(-c2ccc(F)cc2)oc2cc(N(C)S(C)(=O)=O)c(-c3ncc4c(n3)-c3cc5c(F)cccc5n3CCO4)cc12 [Compound 8]	1.6	2.1	–	–
CNC(=O)c1c(-c2ccc(F)cc2)oc2cc(N(C)S(C)(=O)=O)c(-c3ncc4c(n3)-c3cc5ccccc5n3C(C)O4)cc12 (stereo not shown) [Compound 9]	1.1	1.9	–	–
CNC(=O)c1c(-c2ccc(F)cc2)oc2cc(N(C)S(C)(=O)=O)c(-c3ccc4c(c3)-c3cc5ccccc5n3CO4)cc12 [Compound 10]	1.6	2.4	–	–
CNC(=O)c1c(-c2ccc(F)cc2)oc2cc(N(C)S(C)(=O)=O)c(-c3cc4c(cn3)OCn3c-4cc4ccccc43)cc12 [Compound 11]	2.1	1.8	–	–
CNC(=O)c1c(-c2ccc(F)cc2)oc2cc(N(C)S(C)(=O)=O)c(-c3ccc4c(n3)-c3cc5c(C#N)cccc5n3CO4)cc12 [Compound 12]	1.6	1.7	–	–
CNC(=O)c1c(-c2ccc(F)cc2)oc2cc(N(C)S(C)(=O)=O)c(-c3ccc4c(n3)-c3cc5cc(C#N)ccc5n3CO4)cc12 [Compound 13]	2	2.2	–	–
CNC(=O)c1c(-c2ccc(F)cc2)oc2cc(N(C)S(C)(=O)=O)c(-c3ccc4c(n3)-c3cc5c(Cl)cccc5n3CO4)cc12 [Compound 14]	3	6.2	–	–
CNC(=O)c1c(-c2ccc(F)cc2)oc2cc(N(C)S(C)(=O)=O)c(-c3ccc4c(n3)-c3cc5ccc(Cl)cc5n3CO4)cc12 [Compound 15]	9.1	9.9	–	–
CNC(=O)c1c(-c2ccc(F)cc2)oc2cc(N(C)S(C)(=O)=O)c(-c3cc4c(cn3)OCn3c-4cc4c(F)cccc43)cc12 [Compound 16]	2.1	2.3	–	–
CNC(=O)c1c(-c2ccc(F)cc2)oc2cc(N(C)S(C)(=O)=O)c(-c3ccc4c(n3)-c3cc5ccc(F)cc5n3CO4)cc12 [Compound 17]	4	3.9	–	–
CNC(=O)c1c(-c2ccc(F)cc2)oc2cc(N(C)S(C)(=O)=O)c(-c3ccc4c(n3)-c3cc5cccc(C#N)c5n3CO4)cc12 [Compound 18]	9.2	5.4	–	–
CNC(=O)c1c(-c2ccc(F)cc2)oc2cc(N(C)S(C)(=O)=O)c(-c3ccc4c(n3)-c3cc5cc(F)cc(F)c5n3CO4)cc12 [Compound 19]	19	21	–	–
CNC(=O)c1c(-c2ccc(F)cc2)oc2cc(N(C)S(C)(=O)=O)c(-c3ccc4c(n3)-c3cc5cccc(F)c5n3CO4)cc12 [Compound 20]	6.7	6.9	–	–
CNC(=O)c1c(-c2ccc(F)cc2)oc2cc(N(C)S(C)(=O)=O)c(-c3ccc4c(n3)-c3cc5cccc(Cl)c5n3CO4)cc12 [Compound 21]	14	13	–	–
CNC(=O)c1c(-c2ccc(F)cc2)oc2cc(N(C)S(C)(=O)=O)c(-c3ccc4c(n3)-c3cc5ccc(C#N)cc5n3CO4)cc12 [Compound 22]	3.5	1.9	–	–

SMILES	IC50 (HCV replicon genotype 1a; Hepatitis C virus, 96 h) [nM]	IC50 (HCV replicon genotype 1b; Hepatitis C virus, 96 h) [nM]	IC50 (HCV replicon genotype 1a) [nM]	IC50 (HCV replicon genotype 1b) [nM]
CNC(=O)c1c(-c2ccc(F)cc2)oc2cc(N(C)S(C)(=O)=O)c(-c3cc4c(cn3)OCn3c-4cc4c(C#N)cccc43)cc12 [Compound 23]	0.9	1.2	–	–
CNC(=O)c1c(-c2ccc(F)cc2)oc2cc(N(C)S(C)(=O)=O)c(-c3cnc4c(c3)-c3cc5ccccc5n3CO4)cc12 [Compound 24]	3	5.1	–	–
CNC(=O)c1c(-c2ccc(F)cc2)oc2cc(N(C)S(C)(=O)=O)c(-c3cnc4c(n3)-c3cc5c(F)cccc5n3CO4)cc12 [Compound 25]	1	1.8	–	–
CNC(=O)c1c(-c2ccc(F)cc2)oc2cc(N(C)S(C)(=O)=O)c(-c3ncc4c(n3)-c3cc5c(C#N)cccc5n3CO4)cc12 [Compound 26]	1.1	1.2	–	–
CNC(=O)c1c(-c2ccc(F)cc2)oc2cc(N(C)S(C)(=O)=O)c(-c3nc4c(cc3F)OCn3c-4cc4c(F)cccc43)cc12 [Compound 27]	2.9	6.1	–	–
CNC(=O)c1c(-c2ccc(F)cc2)oc2cc(N(C)S(C)(=O)=O)c(-c3ccc4c(n3)-c3cc5c(F)c(F)ccc5n3CO4)cc12 [Compound 28]	2.1	4.5	–	–
CNC(=O)c1c(-c2ccc(F)cc2)oc2cc(N(C)S(C)(=O)=O)c(-c3nc4c(cc3OC)OCn3c-4cc4ccccc43)cc12 [Compound 29]	4.8	8	–	–
CNC(=O)c1c(-c2ccc(F)cc2)oc2cc(N(C)S(C)(=O)=O)c(-c3ncc4c(n3)-c3cc5c(F)c(F)ccc5n3CO4)cc12 [Compound 30]	1	2.1	–	–
CNC(=O)c1c(-c2ccc(F)cc2)oc2cc(N(C)S(C)(=O)=O)c(-c3ccc4c(n3)-c3cc5cc(C#N)cc(F)c5n3CO4)cc12 [Compound 31]	7.2	6.5	–	–
CNC(=O)c1c(-c2ccc(F)cc2)oc2cc(N(C)S(C)(=O)=O)c(-c3nc4c(cc3C)OCn3c-4cc4c(F)cccc43)cc12 [Compound 32]	5.7	19	–	–
CNC(=O)c1c(-c2ccc(F)cc2)oc2cc(N(C)S(C)(=O)=O)c(-c3cnc4c(n3)-c3cc5c(C#N)cccc5n3CO4)cc12 [Compound 33]	0.9	1.2	–	–
CNC(=O)c1c(-c2ccc(F)cc2)oc2cc(N(C)S(C)(=O)=O)c(-c3cnc4c(c3)-c3cc5c(F)cccc5n3CO4)cc12 [Compound 34]	1.4	3.3	–	–
CNC(=O)c1c(-c2ccc(F)cc2)oc2cc(N(C)S(C)(=O)=O)c(-c3cc4c(cn3)OCn3c-4cc4cc(F)ccc43)cc12 [Compound 35]	2.5	4.7	–	–
CNC(=O)c1c(-c2ccc(F)cc2)oc2cc(N(C)S(C)(=O)=O)c(-c3nc4c(cc3OC)OCn3c-4cc4c(F)cccc43)cc12 [Compound 36]	1.7	7.1	–	–
CNC(=O)c1c(-c2ccc(F)cc2)oc2cc(N(C)S(C)(=O)=O)c(-c3ccc4c(n3)-c3cc5c(F)cccc5n3C(C)O4)cc12 (stereo not shown) [Compound 37]	3.4	5.9	–	–
CNC(=O)c1c(-c2ccc(F)cc2)oc2cc(N(C)S(C)(=O)=O)c(-c3ccc4c(n3)-c3cc5c(F)cccc5n3C(C)O4)cc12 (stereo not shown) [Compound 38]	–	–	3.2	5.8
CNC(=O)c1c(-c2ccc(F)cc2)oc2cc(N(C)S(C)(=O)=O)c(-c3ncc4c(n3)-c3cc5ccccc5n3CCCO4)cc12 [Compound 39]	2.4	1.8	–	–
CNC(=O)c1c(-c2ccc(F)cc2)oc2cc(N(C)S(C)(=O)=O)c(-c3ncc4c(n3)-c3cc5c(F)cccc5n3CCCO4)cc12 [Compound 40]	2	2.2	–	–
CNC(=O)c1c(-c2ccc(F)cc2)oc2cc(N(C)S(C)(=O)=O)c(-c3ccc4c(c3)-c3cc5ccccc5n3CCO4)cc12 [Compound 42, 5-(6,7-dihydrobenzo[6,7][1,4]oxazepino[4,5-a]indol-2-yl)-2-(4-fluorophenyl)-N-methyl-6-(N-methylmethylsulfonamido)benzofuran-3-carboxamide]	3.1	4.5	–	–
CNC(=O)c1c(-c2ccc(F)cc2)oc2cc(N(C)S(C)(=O)=O)c(-c3ccc4c(c3)-c3cc5c(F)cccc5n3CO4)cc12 [Compound 43, 5-(11-fluoro-6H-benzo[5,6][1,3]oxazino[3,4-a]indol-2-yl)-2-(4-fluorophenyl)-N-methyl-6-(N-methylmethylsulfonamido)benzofuran-3-carboxamide]	2.4	3.9	–	–
CNC(=O)c1c(-c2ccc(F)cc2)oc2cc(N(C)S(C)(=O)=O)c(-c3ccc4c(n3)-c3cc5ncccc5n3CO4)cc12 [Compound 44]	2.8	2.4	–	–
CNC(=O)c1c(-c2ccc(F)cc2)oc2cc(N(C)S(C)(=O)=O)c(-c3ccc4c(n3)-c3cc5nc(OC)ccc5n3CO4)cc12 [Compound 45, 2-(4-fluorophenyl)-5-(10-methoxy-6H-pyrido[2,3-e]pyrido[2′,3′:4,5]pyrrolo[1,2-c][1,3]oxazin-2-yl)-N-methyl-6-(N-methylmethylsulfonamido)benzofuran-3-carboxamide]	9.2	11	–	–
